The source of these data is patent publication US20210284668A1, “GOLD (I)-PHOSPHINE 1,2,3-TRIAZOLE DERIVATIVES WITH ANTIBIOTIC PROPERTIES” (Centre National de la Recherche Scientifique, priority 2018, published 2021).

The test system of one assay is S. aureus ATCC25923. Put plainly: MIC by microdilution, S. aureus ATCC25923. Format: cell-based, Staphylococcus aureus. The note with it: S. aureus ATCC25923 (MecA negative, wild-type), Mueller-Hinton broth, in duplicate. In outline:
(§1)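 Broth microdilution per CLSI document M07-A10, Mueller-Hinton medium, each MIC run in duplicate. Strains include E. coli ATCC25922 (wild-type), S. epidermidis ATCC35984 (MecA positive) and S. aureus ATCC700699 (MecA positive, glycopeptide resistant), within a mixed panel of susceptible and resistant Gram-positive/Gram-negative bacteria.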
A general note: Broth dilution looks for growth in wells or tubes with falling amounts of substance.

The subject of the next assay is S. aureus ATCC29213. Put plainly: MIC by microdilution, S. aureus ATCC29213. The note with it: S. aureus ATCC29213 (MecA negative, wild-type), Mueller-Hinton broth, in duplicate. Format: cell-based, Staphylococcus aureus. The procedure, abridged: as §1
The test system of a further assay is S. aureus ATCC700699. Nature of the assay: MIC by microdilution, S. aureus ATCC700699. Type of assay: cell-based, Staphylococcus aureus. The arrangement: unit not given here. Particulars: S. aureus ATCC700699 (MecA positive, glycopeptide resistant), in duplicate. In outline: (§2)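 Broth microdilution per CLSI (M07-A10) in Mueller-Hinton broth, run in duplicate; MIC recorded as minimal inhibitory concentration. Panel spans wild-type to multidrug-resistant strains, e.g. S. aureus ATCC700699 (MecA+, glycopeptide resistant), S. epidermidis ATCC35984 (MecA+), E. coli ATCC25922 (wild-type).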

For the next assay, the system named is S. aureus ST20131365. Nature of the assay: MIC by microdilution, S. aureus ST20131365. Format: cell-based, Staphylococcus aureus. Particulars: S. aureus ST20131365 (MecA positive, glycopeptide resistant), in duplicate. In outline:
as §2

In the next assay the test system is S. epidermidis ATCC14990. Put plainly: MIC by microdilution, S. epidermidis ATCC14990. Type of assay: cell-based, Staphylococcus epidermidis. Particulars: S. epidermidis ATCC14990 (MecA negative, wild-type), in duplicate. The procedure, abridged:
as §2

The subject of another assay is S. epidermidis ATCC35984. Put plainly: MIC by microdilution, S. epidermidis ATCC35984. Format: cell-based, Staphylococcus epidermidis. Particulars: S. epidermidis ATCC35984 (MecA positive), in duplicate. In outline:
as §2

In assay [1] the test system is S. epidermidis ST20140436. Nature of the assay: MIC by microdilution, S. epidermidis ST20140436. Particulars: S. epidermidis ST20140436 (MecA positive, glycopeptide resistant), in duplicate. Format: cell-based, Staphylococcus epidermidis. The procedure, abridged:
as §1

Assay [2] has as its system S. epidermidis ST20150446. Put plainly: MIC by microdilution, S. epidermidis ST20150446. Type of assay: cell-based, Staphylococcus epidermidis. Particulars: S. epidermidis ST20150446 (MecA positive, glycopeptide resistant), in duplicate. The procedure, abridged: as §1
For a further assay, the system named is E. faecalis JH2-2. Put plainly: MIC by microdilution, E. faecalis JH2-2. The arrangement: unit not given here. The note with it: E. faecalis JH2-2 (wild-type), in duplicate. Type of assay: cell-based, Enterococcus faecalis. The procedure, abridged: as §1
Another assay relates to E. faecalis UCN41. Put plainly: MIC by microdilution, E. faecalis UCN41. Type of assay: cell-based, Enterococcus faecalis. The arrangement: unit not given here. The note with it: E. faecalis UCN41 (VanA positive, glycopeptide resistant), in duplicate. In outline: as §1
The subject of another assay is E. faecalis V583. Nature of the assay: MIC by microdilution, E. faecalis V583. Format: cell-based, Enterococcus faecalis. The note with it: E. faecalis V583 (VanB positive, glycopeptide resistant), in duplicate. The procedure, abridged: as §2
The subject of the next assay is E. faecium ATCC19434T. Nature of the assay: MIC by microdilution, E. faecium ATCC19434T. Format: cell-based, Enterococcus faecium. The arrangement: unit not given here. Particulars: E. faecium ATCC19434T (wild-type), in duplicate. In outline:
as §1

Another assay has as its system E. faecium BM4147. Nature of the assay: MIC by microdilution, E. faecium BM4147. Type of assay: cell-based, Enterococcus faecium. More on the design: unit not given here. Particulars: E. faecium BM4147 (VanA positive, glycopeptide resistant), in duplicate. The procedure, abridged:
as §1

The subject of a further assay is E. faecium AUS0004. Nature of the assay: MIC by microdilution, E. faecium AUS0004. Format: cell-based, Enterococcus faecium. Particulars: E. faecium AUS0004 (VanB positive, glycopeptide resistant), in duplicate. In outline: as §1
The test system of a further assay is E. coli ATCC25922. Nature of the assay: MIC by microdilution, E. coli ATCC25922. Format: cell-based, Escherichia coli. The note with it: E. coli ATCC25922 (wild-type), in duplicate. In outline:
as §2

Assay [3] relates to Clostridium difficile ATCC700057. Put plainly: MIC by microdilution, Clostridium difficile. Format: cell-based. Particulars: strain ATCC70057 [sic] (Tables 1-2) / ATCC700057 (Tables 3-10), in duplicate.
Assay [4] deals with panel of Gram-positive and Gram-negative strains. Put plainly: Antibacterial profile on the selected panel of strains. Particulars: summary of Tables 1-12. Format: cell-based. In outline: as §2

“And” between values parts separate entries of the source, which are not always exact repeats. Identical values can stand only once. Where only a bound is given, the exact number is not on record here.

As to `CC[P+](CC)(CC)[Au-][c]1nn[nH]c1COC(=O)N[C@H](Cc1ccccc1)C(=O)O` [TMB27], the “Minimal Inhibitory Concentration (MIC)” value with S. aureus ATCC25923 was 0.25; in the assay with S. aureus ATCC29213, 0.25 and 0.5; in the assay on S. aureus ATCC700699 it was 0.25; in the assay on S. aureus ST20131365, 0.5; in the assay with S. epidermidis ATCC14990, at most 0.06; in the assay on S. epidermidis ATCC35984 it was at most 0.06. Besides, the “Minimal Inhibitory Concentration (MIC)” value in assay [1] was 0.125; in [2] it was 0.125; with E. faecalis JH2-2, 0.5; with E. faecalis UCN41, 0.5 and 1; with E. faecalis V583, 1; in the assay on E. faecium ATCC19434T, 1. The “Minimal Inhibitory Concentration (MIC)” value in the assay with E. faecium BM4147 is recorded as 1; in the assay with E. faecium AUS0004 it was 2; with E. coli ATCC25922, above 8; in assay [3] it was 0.125. Moreover, the “antimicrobial / antibacterial activity (in words)” value in assay [4] is recorded as “have antimicrobial activity”.
In the case of `CC[P+](CC)(CC)[Au-][c]1nn[nH]c1COC(=O)N1CCC[C@@H]1C(=O)O` [TMB28], the “Minimal Inhibitory Concentration (MIC)” value with S. aureus ATCC25923 was 0.125; with S. aureus ATCC29213, 0.25; in the assay on S. aureus ATCC700699 it was 0.125; in the assay on S. aureus ST20131365 it was 0.25 and 0.5; in the assay on S. epidermidis ATCC14990, at most 0.06; in the assay on S. epidermidis ATCC35984, at most 0.06. For the same compound, the “Minimal Inhibitory Concentration (MIC)” value in assay [1] turned out to be 0.125; in assay [2], 0.125; with E. faecalis JH2-2 it was 0.25; in the assay with E. faecalis UCN41, 0.25; in the assay with E. faecalis V583, 0.25; in the assay on E. faecium ATCC19434T, 0.25. Moreover, the “Minimal Inhibitory Concentration (MIC)” value is 0.5 with E. faecium BM4147; 0.5 in the assay with E. faecium AUS0004; above 8 in the assay on E. coli ATCC25922; 0.125 and 0.25 in assay [3]. Besides, in [4], the “antimicrobial / antibacterial activity (in words)” value was “have antimicrobial activity”.
For `CC[P+](CC)(CC)[Au-][c]1nn[nH]c1COC(=O)N[C@H](Cc1c[nH]c2ccccc12)C(=O)O` [TMB30], the “Minimal Inhibitory Concentration (MIC)” value in the assay with S. aureus ATCC25923 is reported as 0.25; in the assay on S. aureus ATCC29213 it was 0.25; in the assay with S. aureus ATCC700699, 0.25; with S. aureus ST20131365, 0.25; in the assay on S. epidermidis ATCC14990 it was at most 0.06; with S. epidermidis ATCC35984, at most 0.06. Further, the “Minimal Inhibitory Concentration (MIC)” value is 0.125 in assay [1]; 0.125 in [2]; 0.5 in the assay with E. faecalis JH2-2; 0.5 in the assay with E. faecalis UCN41; 0.5 in the assay with E. faecalis V583; 0.5 with E. faecium ATCC19434T. In addition, the “Minimal Inhibitory Concentration (MIC)” value with E. faecium BM4147 was 1; in the assay with E. faecium AUS0004, 1; with E. coli ATCC25922, above 8; in assay [3], 0.125. Further, in assay [4], the “antimicrobial / antibacterial activity (in words)” value is reported as “have antimicrobial activity”.
For the compound `CC[P+](CC)(CC)[Au-][c]1nn[nH]c1CN1CCN(C)CC1` [TMB33], the “Minimal Inhibitory Concentration (MIC)” value with S. aureus ATCC25923 is reported as 0.125; in the assay on S. aureus ATCC29213 it was 0.25; in the assay on S. aureus ATCC700699, 0.25; with S. aureus ST20131365, 0.25; in the assay on S. epidermidis ATCC14990, at most 0.06; with S. epidermidis ATCC35984, at most 0.06. The “Minimal Inhibitory Concentration (MIC)” value is on record as 0.25 in [1]; 0.25 in assay [2]; 0.25 with E. faecalis JH2-2; 1 in the assay on E. faecalis UCN41; 0.5 in the assay with E. faecalis V583; 0.25 in the assay on E. faecium ATCC19434T. Besides, the “Minimal Inhibitory Concentration (MIC)” value in the assay on E. faecium BM4147 is recorded as 0.5; in the assay with E. faecium AUS0004, 0.5; in the assay with E. coli ATCC25922, above 8; in assay [3], at most 0.06. Further, in [4], the “antimicrobial / antibacterial activity (in words)” value is on record as “have antimicrobial activity”.
As for `CC[P+](CC)(CC)[Au-][c]1nn[nH]c1CCCO` [TMB34], the “Minimal Inhibitory Concentration (MIC)” value with S. aureus ATCC25923, in the assay on S. aureus ATCC29213, with S. aureus ATCC700699, in the assay on S. aureus ST20131365, in the assay on S. epidermidis ATCC14990 and in the assay on S. epidermidis ATCC35984 was at most 0.06 in each case. The “Minimal Inhibitory Concentration (MIC)” value was at most 0.06 in [1]; at most 0.06 in assay [2]; 0.125 in the assay on E. faecalis JH2-2; 0.125 in the assay with E. faecalis UCN41; 0.125 in the assay on E. faecalis V583; 0.125 with E. faecium ATCC19434T. Besides, the “Minimal Inhibitory Concentration (MIC)” value in the assay on E. faecium BM4147 is listed as 0.125; in the assay on E. faecium AUS0004 it was 0.125; in the assay on E. coli ATCC25922, above 8; in assay [3], at most 0.06. Further, in [4], the “antimicrobial / antibacterial activity (in words)” value is given as “have antimicrobial activity”.
Consider `CC[P+](CC)(CC)[Au-][c]1nn[nH]c1CC(N)C(=O)O` (stereo not drawn) [TMB37], for which the “Minimal Inhibitory Concentration (MIC)” value was 0.125 in the assay with S. aureus ATCC25923; 0.125 and 0.25 in the assay with S. aureus ATCC29213; 0.25 in the assay with S. aureus ATCC700699; 0.25 in the assay on S. aureus ST20131365; at most 0.06 in the assay on S. epidermidis ATCC14990; at most 0.06 with S. epidermidis ATCC35984. Also, the “Minimal Inhibitory Concentration (MIC)” value in [1] was determined as 0.125; in assay [2], 0.125; with E. faecalis JH2-2, 0.5; in the assay with E. faecalis UCN41, 0.5; in the assay on E. faecalis V583 it was 0.5; in the assay with E. faecium ATCC19434T, 0.5. The “Minimal Inhibitory Concentration (MIC)” value with E. faecium BM4147 is recorded as 0.5; in the assay on E. faecium AUS0004 it was 0.5; with E. coli ATCC25922, above 8; in [3] it was at most 0.06. Also, in assay [4], the “antimicrobial / antibacterial activity (in words)” value is recorded as “have antimicrobial activity”.
